Reference: patent US11091478B2 (Fochon Pharmaceuticals, Ltd., priority 2017, dated 2021)
pIC50: −log10 of the molar value.

Columns and labels:
DOHH2 cells = assay: Cell proliferation assay (MTS), DOHH2 cells, 120 h; assay type: cell-based; settings: Homo sapiens, DOHH-2, 120 h
How it was run: (§1)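 Proliferation was scored by MTS (2 h, then SDS stop, A490 with 650 nm reference) and IC50 derived. Compound ran at nine final concentrations from 1.5 to 10000 nM. DOHH2 were incubated 120 h and RS4;11 72 h, both plated at 5000 cells/well in RPMI-1640 plus 10% FBS.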

RS4;11 cells = assay: Cell proliferation assay (MTS), RS4;11 cells, 72 h; assay type: cell-based; settings: Homo sapiens, RS4-11, 72 h
How it was run: as §1

SMILES	pIC50 (RS4;11 cells)	pIC50 (DOHH2 cells)
COCC[C@H]1COc2cc(S(=O)(=O)NC(=O)c3ccc(N4CCN(CC5=C(c6ccc(Cl)cc6)CC(C)(C)CC5)CC4)cc3Oc3cnc4[nH]ccc4c3)cc([N+](=O)[O-])c2N1 [Example 2-118, (S)-2-((1H-pyrrolo[2,3-b]pyridin-5-yl)oxy)-4-(4-((4′-chloro-5,5-dimethyl-3,4,5,6-tetra-hydro-[1,1′-biphenyl]-2-yl)methyl)piperazin-1-yl)-N-((3-(2-methoxyethyl)-5-nitro-3,4-dihydro-2H-benzo[b][1,4]oxazin-7-yl)sulfonyl)benzamide]	7.96	6.19
CC1(C)CCC(CN2CCN(c3ccc(C(=O)NS(=O)(=O)c4cc5c(c([N+](=O)[O-])c4)N[C@@H](CN4CCS(=O)(=O)CC4)CO5)c(Oc4cnc5[nH]ccc5c4)c3)CC2)=C(c2ccc(Cl)cc2)C1 [Example 2-121, (S)-2-((1H-pyrrolo[2,3-b]pyridin-5-yl)oxy)-4-(4-((4′-chloro-5,5-dimethyl-3,4,5,6-tetra-hydro-[1,1′-biphenyl]-2-yl)methyl)piperazin-1-yl)-N-((3-((1,1-dioxidothiomorpholino)methyl)-5-nitro-3,4-dihydro-2H-benzo[b][1,4]oxazin-7-yl)sulfonyl)benzamide]	7.44	7.32

Second part, led by results:

pIC50 (RS4;11 cells)	SMILES	pIC50 (DOHH2 cells)
7.72	CC1(C)CCC(CN2CCN(c3ccc(C(=O)NS(=O)(=O)c4cc5c(c([N+](=O)[O-])c4)N[C@@H](CN4CCC(N=S(C)(C)=O)CC4)CO5)c(Oc4cnc5[nH]ccc5c4)c3)CC2)=C(c2ccc(Cl)cc2)C1 [Example 2-125, (S)-2-((1H-pyrrolo[2,3-b]pyridin-5-yl)oxy)-4-(4-((4′-chloro-5,5-dimethyl-3,4,5,6-tetra-hydro-[1,1′-biphenyl]-2-yl)methyl)piperazin-1-yl)-N-((3-((4-((dimethyl(oxo)-λ^6-sulfanyl-idene)amino)piperidin-1-yl)methyl)-5-nitro-3,4-dihydro-2H-benzo[b][1,4]oxa-zin-7-yl)sulfonyl)benzamide]	7.37
8.30	CC1(C)CCC(CN2CCN(c3ccc(C(=O)NS(=O)(=O)c4cc5c(c([N+](=O)[O-])c4)N[C@H](CCN4CCS(=O)(=O)CC4)CO5)c(Oc4cnc5[nH]ccc5c4)c3)CC2)=C(c2ccc(Cl)cc2)C1 [Example 2-126, (R)-2-((1H-pyrrolo[2,3-b]pyridin-5-yl)oxy)-4-(4-((4′-chloro-5,5-dimethyl-3,4,5,6-tetra-hydro-[1,1′-biphenyl]-2-yl)methyl)piperazin-1-yl)-N-((3-(2-(1,1-dioxidothiomorpholino)ethyl)-5-nitro-3,4-dihydro-2H-benzo[b] [1,4]oxazin-7-yl)sulfonyl)benzamide]	7.96
7.64	CN=S1(=O)CCN(CC[C@@H]2COc3cc(S(=O)(=O)NC(=O)c4ccc(N5CCN(CC6=C(c7ccc(Cl)cc7)CC(C)(C)CC6)CC5)cc4Oc4cnc5[nH]ccc5c4)cc([N+](=O)[O-])c3N2)CC1 [Example 2-127]	7.38
7.70	CCN=S1(=O)CCN(CC[C@@H]2COc3cc(S(=O)(=O)NC(=O)c4ccc(N5CCN(CC6=C(c7ccc(Cl)cc7)CC(C)(C)CC6)CC5)cc4Oc4cnc5[nH]ccc5c4)cc([N+](=O)[O-])c3N2)CC1 [Example 2-128, (R)-2-((1H-pyrrolo[2,3-b]pyridin-5-yl)oxy)-4-(4-((4′-chloro-5,5-dimethyl-3,4,5,6-tetra-hydro-[1,1′-biphenyl]-2-yl)methyl)piperazin-1-yl)-N-((3-(2-(1-(ethylimino)-1-oxido-1λ^6-thiomorpholino)ethyl)-5-nitro-3,4-di-hydro-2H-benzo[b][1,4]oxazin-7-yl)sulfonyl) benzamide]	7.55
